Laboratory results published in the supplement of paper PMC10307832.

Legend:
Assay in all cases: relative viability (nuclei count vs DMSO), 5 days (fraction); higher = more cells survive
Sulindac + Pictilisib = compound: CC1=C(CC(=O)O)c2cc(F)ccc2/C1=C\c1ccc([S+](C)[O-])cc1 [Sulindac] + CS(=O)(=O)N1CCN(Cc2cc3nc(-c4cccc5[nH]ncc45)nc(N4CCOCC4)c3s2)CC1 [Pictilisib] (partner 1 µM)
In short: (§1)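 Relative viability is defined as nuclei in treated wells over nuclei in vehicle wells. Duplicate plates were run and medians reported. Lung cancer cell lines in 1536-well plates were dosed by pin tool one day after seeding, with one drug or with a fixed anchor-drug dose plus five library-drug doses (not always all listed) in √10 steps, and nuclei were counted after 5 days.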

[1] = compound: O=c1[nH]cc(F)c(=O)[nH]1 [5-Fluorouracil] + CC(=O)Nc1cccc(-n2c(=O)n(C3CC3)c(=O)c3c(Nc4ccc(I)cc4F)n(C)c(=O)c(C)c32)c1 [Trametinib] (partner 0.02 µM)
In short: as §1

[2] = compound: O=c1[nH]cc(F)c(=O)[nH]1 [5-Fluorouracil] + CC(=O)c1c(C)c2cnc(Nc3ccc(N4CCNCC4)cn3)nc2n(C2CCCC2)c1=O [Palbociclib] (partner 0.5 µM)
In short: as §1

5-Fluorouracil + AZD7762 = compound: O=c1[nH]cc(F)c(=O)[nH]1 [5-Fluorouracil] + NC(=O)Nc1cc(-c2cccc(F)c2)sc1C(=O)N[C@H]1CCCNC1 [AZD7762] (partner 0.2 µM)
In short: as §1

| Cell Line | relative viability (Sulindac + Pictilisib; first compound 0.08 µM) | relative viability (Sulindac + Pictilisib; first compound 0.253 µM) | relative viability (Sulindac + Pictilisib; first compound 2.53 µM) | relative viability (Sulindac + Pictilisib; first compound 8 µM) | relative viability (Sulindac + Pictilisib; first compound 0.8 µM) | relative viability ([1]; first compound 0.02 µM) | relative viability ([1]; first compound 0.2 µM) | relative viability ([1]; first compound 0.6325 µM) | relative viability ([1]; first compound 2 µM) | relative viability ([2]; first compound 0.02 µM) | relative viability ([2]; first compound 0.2 µM) | relative viability ([2]; first compound 0.6325 µM) | relative viability ([2]; first compound 2 µM) | relative viability (5-Fluorouracil + AZD7762; first compound 0.02 µM) | relative viability (5-Fluorouracil + AZD7762; first compound 0.2 µM) | relative viability (5-Fluorouracil + AZD7762; first compound 0.6325 µM) | relative viability (5-Fluorouracil + AZD7762; first compound 2 µM) |
| --- | --- | --- | --- | --- | --- | --- | --- | --- | --- | --- | --- | --- | --- | --- | --- | --- | --- |
| IA-LM | 0.439 | 0.371 | 0.352 | 0.419 |  |  |  |  |  |  |  |  |  |  |  |  |  |
| LC-2-ad | 0.63 | 0.533 | 0.416 | 0.445 | 0.34 | 1.02 | 0.894 | 0.552 | 0.349 | 0.519 | 0.523 | 0.467 | 0.325 | 0.922 | 0.536 | 0.331 | 0.253 |
| LCLC-97TM1 | 0.198 | 0.214 |  | 0.187 | 0.18 | 0.181 | 0.203 | 0.209 | 0.188 | 0.221 | 0.228 | 0.215 | 0.157 | 0.16 | 0.276 | 0.22 | 0.132 |
| LCLC-103H | 0.757 | 0.612 | 0.642 | 0.748 | 0.545 | 0.733 | 0.671 | 0.598 | 0.566 | 0.476 | 0.472 | 0.471 | 0.471 | 0.734 | 0.758 | 0.546 | 0.381 |
| LK-2 | 0.551 | 0.675 |  | 0.558 |  | 0.713 | 0.769 | 0.633 | 0.453 | 0.568 | 0.618 | 0.155 | 0.257 | 0.482 | 0.486 | 0.153 | 0.188 |
| LOU-NH91 | 0.584 | 0.514 | 0.512 | 0.574 | 0.536 | 0.814 | 0.871 | 0.818 | 0.596 | 0.545 | 0.536 | 0.541 | 0.399 | 0.754 | 0.725 | 0.44 | 0.313 |
| LU99A | 0.33 | 0.31 | 0.267 | 0.344 | 0.301 | 0.655 | 0.559 | 0.374 | 0.268 | 0.441 | 0.419 | 0.361 | 0.257 | 0.364 | 0.458 | 0.368 | 0.177 |
| NCI-H322M | 0.579 | 0.508 | 0.545 | 0.539 | 0.419 | 0.532 | 0.664 | 0.463 | 0.456 |  |  |  |  | 0.57 | 0.627 | 0.608 | 0.53 |
| NCI-H520 | 0.336 | 0.3 | 0.251 | 0.366 | 0.235 | 0.624 | 0.666 | 0.439 | 0.311 | 0.177 | 0.271 | 0.218 | 0.167 |  |  |  |  |
| NCI-H522 |  |  |  |  |  | 0.76 | 0.681 | 0.724 | 0.638 | 1 | 1.05 | 0.96 | 0.992 | 0.948 | 0.98 | 0.755 | 0.916 |
| NCI-H596 | 0.391 | 0.378 | 0.37 | 0.411 | 0.413 | 0.845 | 0.649 | 0.632 | 0.479 |  |  |  |  | 1.23 | 0.981 | 0.371 | 0.356 |
| NCI-H661 | 0.421 | 0.412 | 0.514 | 0.461 | 0.358 | 0.63 | 0.67 | 0.481 | 0.567 | 0.407 | 0.436 | 0.425 | 0.419 |  |  |  |  |
| NCI-H1299 | 0.671 | 0.9 | 0.778 | 0.878 | 0.651 |  |  |  |  |  |  |  |  |  |  |  |  |
| NCI-H1563 | 0.609 | 0.662 | 0.65 | 0.622 | 0.665 |  |  |  |  |  |  |  |  |  |  |  |  |
| NCI-H1648 |  |  |  |  |  | 0.467 | 0.405 | 0.466 | 0.306 | 0.297 | 0.267 | 0.281 | 0.241 | 0.582 | 0.831 | 0.493 | 0.435 |
| NCI-H1650 | 0.64 | 0.676 | 0.555 | 0.719 | 0.413 | 0.745 | 0.532 | 0.33 | 0.254 | 0.275 | 0.379 | 0.31 | 0.236 |  |  |  |  |
| NCI-H1703 | 0.229 | 0.238 | 0.229 | 0.291 | 0.219 |  |  |  |  |  |  |  |  | 0.103 | 0.072 | 0.118 | 0.118 |
| NCI-H2009 | 1.04 | 0.8 | 0.71 | 0.932 | 0.788 | 0.255 | 0.271 | 0.247 | 0.215 | 0.196 | 0.229 | 0.169 | 0.213 |  |  |  |  |
| NCI-H2023 | 0.27 | 0.213 | 0.222 | 0.234 | 0.249 | 0.472 | 0.21 | 0.133 | 0.0877 | 0.397 | 0.155 | 0.0836 | 0.102 |  |  |  |  |
| NCI-H2228 | 0.488 | 0.407 | 0.383 | 0.603 | 0.244 | 0.628 | 0.685 | 0.441 | 0.326 | 0.79 | 0.733 | 0.509 | 0.356 |  |  |  |  |
| NCI-H2342 |  |  |  |  |  | 0.932 | 0.762 | 0.843 | 0.662 | 0.497 | 0.543 | 0.536 | 0.518 | 0.473 | 0.622 | 0.557 | 0.546 |
| SK-LU-1 | 0.582 | 0.592 | 0.49 | 0.703 |  | 0.458 | 0.598 | 0.435 | 0.464 | 0.398 | 0.388 | 0.382 | 0.373 |  |  |  |  |
| SK-MES-1 | 0.368 | 0.427 | 0.362 | 0.459 | 0.323 | 0.496 | 0.552 | 0.381 | 0.352 | 0.337 | 0.285 | 0.244 | 0.277 |  |  |  |  |
| SW 900 |  |  |  |  |  | 0.747 | 0.735 | 0.59 | 0.558 | 0.481 | 0.473 | 0.497 | 0.416 | 0.739 | 0.695 | 0.543 | 0.398 |
| SW 1573 | 0.508 | 0.632 | 0.511 | 0.605 | 0.451 | 0.576 | 0.631 | 0.497 | 0.306 | 0.398 | 0.353 | 0.29 | 0.236 |  |  |  |  |
